Experiment [1] concerns the target T1, CDK12/CycK (Homo sapiens, UniProt Q9NYV4).
T1 construct: His-CDK12 (aa Q696-S1082); made in house; host or cells: Hi-5 insect cells (baculovirus co-infection with CAK1)
As to the kind of experiment: CDK12/CycK high ATP kinase assay (TR-FRET, 2 mM ATP). The experiment is classed as biochemical. To be noted: read-out: CDK12/CyclinK, 2 mM ATP (high ATP), IC50-[mol/l] (median). The source says:
In the context of the present invention, the term “IC50 CDK12 hATP” refers to the IC50 values obtained according to the assay described in this section (2.2) herein below, i.e. the IC50 values for the inhibition of CDK12 at high ATP.
CDK12/CycK-inhibitory activity of compounds of the present invention at 2 millimol/L adenosine-tri-phosphate (ATP) was quantified employing the TR-FRET (TR-FRET=Time Resolved Fluorescence Energy Transfer) based CDK12/CycK activity inhibition assay as described in the following paragraphs.
A complex of human recombinant CDK12 and human recombinant CycK (both N-terminally His-tagged, expression and purification as described above) was used as enzyme. As substrate for the kinase reaction biotinylated peptide biotin-Ahx-KFELLPTPPLSPSRRSGL (C-terminus in amid form) was used which can be purchased e.g. form the company Biosyntan (Berlin-Buch, Germany).
For the assay 50 nanoL of a 100 fold concentrated solution of the test compound in DMSO was pipetted into either a black low volume 384 well microtiter plate or a black 1536 well microtiter plate (both Greiner Bio-One, Frickenhausen, Germany), 2 microL of a solution of CDK12/CycK in aqueous assay buffer [25 millimol/L HEPES pH 7.5, 20 millimol/L MgCl2, 5 millimol/L ß-glycerophosphate, 2 millimol/L EGTA, 1.0 millimol/L dithiothreitol, 0.01% (v/v) Nonidet-P40 (Sigma), 0.01% (w/v) bovine serum albumin] were added and the mixture was incubated for 15 min at 22° C. to allow pre-binding of the test compounds to the enzyme before the start of the kinase reaction. Then the kinase reaction was started by the addition of 3 microL of a solution ATP (3.33 millimol/L=> final conc. in the 5 microL assay volume is 2 millimol/L) and substrate (1.67 micromol/L=> final conc. in the 5 microL assay volume is 1 micromol/L) in assay buffer and the resulting mixture was incubated for a reaction time of 60 min at 22° C. The concentration of CDK12/CycK was adjusted depending of the activity of the enzyme lot and was chosen appropriate to have the assay in the linear range, typical concentrations were about 0.75 nanomol/L. The reaction was stopped by the addition of 3 microL of a solution of TR-FRET detection reagents (125 nanomol/L streptavidine-XL665 [Cisbio Bioassays, Codolet, France] and 0.67 nanomol/L anti-Phospho-c-Myc (Ser 62) (E1J4K)-antibody from Cell Signalling [#13748] and 2 nanomol/L LANCE EU-W1024 labeled anti-rabbit IgG antibody [Perkin-Elmer, product no. 0083]) in an aqueous EDTA-solution (133 millimol/L EDTA, 0.27% (w/v) bovine serum albumin in 66.7 millimol/L HEPES pH 7.5).
(§1) The resulting mixture was incubated 1 h at 22° C. to allow the formation of complex between the phosphorylated biotinylated peptide and the detection reagents. Subsequently the amount of phosphorylated substrate was evaluated by measurement of the resonance energy transfer from the Eu-chelate to the streptavidine-XL. Therefore, the fluorescence emissions at 620 nm and 665 nm after excitation at 350 nm was measured in a TR-FRET reader, e.g. a Pherastar FS (BMG Labtechnologies, Offenburg, Germany) or a Viewlux (Perkin-Elmer). The ratio of the emissions at 665 nm and at […] was taken as the measure for the amount of phosphorylated substrate. The data were normalised (enzyme reaction without inhibitor=0% inhibition, all other assay components but no enzyme=100% inhibition).

Experiment [2] has as its target T2, CDK2/CycE (Homo sapiens, UniProt P24941).
T2 construct: purchased ProQinase GmbH (Freiburg, Germany); host or cells: insect cells (Sf9)
In words: CDK2/CycE kinase assay (TR-FRET, 2 mM ATP). The experiment is classed as biochemical. To be noted: read-out: CDK2/CyclinE, 2 mM ATP (high ATP) IC50-[mol/l] (median).
Text: CDK2/CycE-inhibitory activity of compounds of the present invention was quantified employing the CDK2/CycE TR-FRET assay as described in the following paragraphs.
Recombinant fusion proteins of GST and human CDK2 and of GST and human CycE, expressed in insect cells (Sf9) and purified by Glutathion-Sepharose affinity chromatography, were purchase from ProQinase GmbH (Freiburg, Germany). As substrate for the kinase reaction biotinylated peptide biotin-Ttds-YISPLKSPYKISEG (C-terminus in amid form) was used which can be purchased e.g. form the company JERINI peptide technologies (Berlin, Germany).
For the assay 50 nanoL of a 100 fold concentrated solution of the test compound in DMSO was pipetted into a black low volume 384 well microtiter plate or a black 1536 well microtiter plate (both Greiner Bio-One, Frickenhausen, Germany), 2 microL of a solution of CDK2/CycE in aqueous assay buffer [50 millimol/L Tris/HCl pH 8.0, 10 millimol/L MgCl2, 1.0 millimol/L dithiothreitol, 0.1 millimol/L sodium ortho-vanadate, 0.01% (v/v) Nonidet-P40 (Sigma)] were added and the mixture was incubated for 15 min at 22° C. to allow pre-binding of the test compounds to the enzyme before the start of the kinase reaction. Then the kinase reaction was started by the addition of 3 microL of a solution of adenosine-tri-phosphate (ATP, 3.33 millimol/L=> final conc. in the 5 microL assay volume is 2 millimol/L) and substrate (1.25 micromol/L=> final conc. in the 5 microL assay volume is 0.75 micromol/L) in assay buffer and the resulting mixture was incubated for a reaction time of 25 min at 22° C. The concentration of CDK2/CycE was adjusted depending of the activity of the enzyme lot and was chosen appropriate to have the assay in the linear range, typical concentrations were in the range of 10 ng/ml. The reaction was stopped by the addition of 3 microL of a solution of TR-FRET detection reagents (0.333 micromol/L streptavidine-XL665 [Cisbio Bioassays, Codolet, France] and 1.67 nanomol/L anti-RB(pSer807/pSer8l 1)-antibody from BD Pharmingen [#558389] and 2 nanomol/L LANCE EU-W1024 labeled anti-mouse IgG antibody [Perkin-Elmer, product no. AD0077, as an alternative a Terbium-cryptate-labeled anti-mouse IgG antibody from Cisbio Bioassays can be used]) in an aqueous EDTA-solution (167 millimol/L EDTA, 0.2% (w/v) bovine serum albumin in 100 millimol/L HEPES pH 7.5).
as §1, with “Pherastar” for “Pherastar FS”

T1 sequence (Q9NYV4 with tags, fused parts or gaps): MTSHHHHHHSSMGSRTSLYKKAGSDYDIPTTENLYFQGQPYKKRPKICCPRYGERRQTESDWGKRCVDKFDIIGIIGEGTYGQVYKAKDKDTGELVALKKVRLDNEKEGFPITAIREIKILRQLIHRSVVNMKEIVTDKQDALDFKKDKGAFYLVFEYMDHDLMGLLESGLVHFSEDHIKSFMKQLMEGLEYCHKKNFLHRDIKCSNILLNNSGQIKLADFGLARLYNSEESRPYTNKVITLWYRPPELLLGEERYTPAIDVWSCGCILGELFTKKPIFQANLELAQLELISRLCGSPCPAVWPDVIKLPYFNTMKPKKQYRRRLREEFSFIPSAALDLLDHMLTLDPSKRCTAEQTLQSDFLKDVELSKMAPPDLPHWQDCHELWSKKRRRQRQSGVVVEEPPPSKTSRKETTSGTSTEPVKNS
T1 sequence (O75909 with tags, fused parts or gaps partner limits assumed): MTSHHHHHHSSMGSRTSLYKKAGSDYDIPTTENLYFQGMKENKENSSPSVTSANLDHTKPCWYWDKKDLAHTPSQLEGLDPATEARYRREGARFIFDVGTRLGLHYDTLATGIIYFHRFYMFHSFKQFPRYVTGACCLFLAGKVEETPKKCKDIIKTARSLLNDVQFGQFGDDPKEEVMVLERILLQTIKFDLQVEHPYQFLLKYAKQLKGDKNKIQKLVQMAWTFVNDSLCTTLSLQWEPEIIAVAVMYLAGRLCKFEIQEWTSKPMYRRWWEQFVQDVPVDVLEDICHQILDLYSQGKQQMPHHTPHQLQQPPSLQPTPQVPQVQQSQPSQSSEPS

`C[C@@H]1CN(c2nc(NCc3nc4c(F)c(F)ccc4[nH]3)c3ncc(Br)n3n2)C[C@H](C)N1` [Example 11, 7-bromo-N-[(4,5-difluoro-1H-benzimidazol-2-yl)methyl]-2-[rel-(3R,5S)-3,5-dimethylpiperazin-1-yl]imidazo[2,1-f][1,2,4]triazin-4-amine]: the IC50 in experiment [1] was 0.579 µM; in experiment [2], above 20 µM.

For `CN1CCN(c2nc(NCc3nc4c(F)c(F)ccc4[nH]3)c3ncc(C(F)(F)F)n3n2)CC1` [Example 28, N-[(4,5-difluoro-1H-benzimidazol-2-yl)methyl]-2-(4-methylpiperazin-1-yl)-7-(trifluoromethyl)imidazo[2,1-f][1,2,4]triazin-4-amine], the results for the IC50 in experiment [1] and in experiment [2] were 1.68 µM and above 20 µM, respectively.

On to `COc1cccc2[nH]c(CNc3nc(N4CCNCC4)nn4c(Br)cnc34)nc12` [Example 15, 7-bromo-N-[(4-methoxy-1H-benzimidazol-2-yl)methyl]-2-(piperazin-1-yl)imidazo[2,1-f][1,2,4]triazin-4-amine], for which the IC50 in experiment [1] amounted to 2.09 µM; in experiment [2], 14.2 µM.

As for `C[C@@H]1CN(c2nc(NCc3nc4c(F)c(F)ccc4[nH]3)c3ncc(Br)n3n2)C[C@H](C)O1` [Example 5, 7-bromo-N-[(4,5-difluoro-1H-benzimidazol-2-yl)methyl]-2-[rel-(2R,6S)-2,6-dimethylmorpholin-4-yl]imidazo[2,1-f][1,2,4]triazin-4-amine], the IC50 is 0.137 µM in experiment [1] and above 20 µM in experiment [2].

Take `Brc1cnc2c(NCc3nc4ccccc4[nH]3)nc(N3CCOCC3)nn12` [Example 1, N-[(1H-benzimidazol-2-yl)methyl]-7-bromo-2-(morpholin-4-yl)imidazo[2,1-f][1,2,4]triazin-4-amine]: the IC50 in experiment [1] is 5.11 µM; in experiment [2], 11.7 µM.

As for `OC[C@@H]1CCCCN1c1nc(NCc2nc3ccccc3[nH]2)c2ncc(Br)n2n1` [Example 17, [(2S)-1-(4-{[(1H-benzimidazol-2-yl)methyl]amino}-7-bromoimidazo[2,1-f][1,2,4]triazin-2-yl)piperidin-2-yl]methanol], the figures for the IC50 in experiment [1] and in experiment [2] were 0.116 µM and 1.41 µM, respectively.

For the compound `Fc1cccc2[nH]c(CNc3nc(N4CCOCC4)nn4c(Br)cnc34)nc12` [Example 12, 7-bromo-N-[(4-fluoro-1H-benzimidazol-2-yl)methyl]-2-(morpholin-4-yl)imidazo[2,1-f][1,2,4]triazin-4-amine], the IC50 in experiment [1] is 4.71 µM; in experiment [2], above 20 µM.

In the case of `COc1cccc2[nH]c(CNc3nc(N4C[C@@H](C)N[C@@H](C)C4)nn4c(Br)cnc34)nc12` [Example 14, 7-bromo-2-[rel-(3R,5S)-3,5-dimethylpiperazin-1-yl]-N-[(4-methoxy-1H-benzimidazol-2-yl)methyl]imidazo[2,1-f][1,2,4]triazin-4-amine], the IC50 in experiment [1] was 2.01 µM; in experiment [2], above 20 µM.

For `CN1CCN(c2nc(NCc3nc4cc(F)ccc4[nH]3)c3ncc(Br)n3n2)CC1` [Example 21, 7-bromo-N-[(5-fluoro-1H-benzimidazol-2-yl)methyl]-2-(4-methylpiperazin-1-yl)imidazo[2,1-f][1,2,4]triazin-4-amine], the IC50 is 16.5 µM in experiment [1] and above 20 µM in experiment [2].

For `C[C@@H]1CN(c2nc(NCc3nc4ccccc4[nH]3)c3ncc(Br)n3n2)C[C@H](C)N1` [Example 9, N-[(1H-benzimidazol-2-yl)methyl]-7-bromo-2-[rel-(3R,5S)-3,5-dimethylpiperazin-1-yl]imidazo[2,1-f][1,2,4]triazin-4-amine], the results for the IC50 in experiment [1] and in experiment [2] were 4.9 µM and above 20 µM, respectively.

Turning to `C[C@@H]1CN(c2nc(NCc3nc4ccccc4[nH]3)c3ncc(C(F)(F)F)n3n2)C[C@H](C)N1.O=CO` [Example 24, N-[(1H-benzimidazol-2-yl)methyl]-2-[rel-(3R,5S)-3,5-dimethylpiperazin-1-yl]-7-(trifluoromethyl)imidazo[2,1-f][1,2,4]triazin-4-amine Formate (1/1)], the values for the IC50 in experiment [1] and in experiment [2] were 0.737 µM and above 20 µM, respectively.

`COc1cccc2[nH]c(CNc3nc(N4CCN(C)CC4)nn4c(Br)cnc34)nc12.O=CO` [Example 16, 7-bromo-N-[(4-methoxy-1H-benzimidazol-2-yl)methyl]-2-(4-methylpiperazin-1-yl)imidazo[2,1-f][1,2,4]triazin-4-amine Formate (1/1)]: the IC50 in experiment [1] came to 6.29 µM; in experiment [2] it was 12.6 µM.

Regarding `Fc1ccc2[nH]c(CNc3nc(N4CCOCC4)nn4c(C(F)(F)F)cnc34)nc2c1F` [Example 27, N-[(4,5-difluoro-1H-benzimidazol-2-yl)methyl]-2-(morpholin-4-yl)-7-(trifluoromethyl)imidazo[2,1-f][1,2,4]triazin-4-amine], the IC50 in experiment [1] is 0.0107 µM; in experiment [2] it was above 20 µM.

Consider `CN(CC(C)(C)O)c1nc(NCc2nc3ccccc3[nH]2)c2ncc(C(F)(F)F)n2n1` [Example 30, 1-[{4-[(1H-benzimidazol-2-ylmethyl)amino]-7-(trifluoromethyl)imidazo[2,1-f][1,2,4]triazin-2-yl}(methyl)amino]-2-methylpropan-2-ol], for which the IC50 was 0.163 µM in experiment [1] and 4.78 µM in experiment [2].

These data come from patent publication US20230106032A1, “IMIDAZOTRIAZINES ACTING ON CANCER VIA INHIBITION OF CDK12” (Bayer Aktiengesellschaft, priority 2020, published 2023).
